In patent US8450313B2, “2,3-diaryl- or heteroaryl-substituted 1,1,1-trifluoro-2-hydroxypropyl compounds” (Hoffmann-La Roche Inc., priority 2009, dated 2013):

Each molecule was assayed against T1, full length human recombinant glucocorticoid receptor (Homo sapiens, UniProt P04150) (assay: Glucocorticoid Receptor Binding Assay (Glucocorticoid Receptor Competitor Assay far red kit, fluorescence polarization)). Details: competition with fluorescent GR ligand Fluormone GS Far Red, 3 hours at 22° C., pH 7.4; Ki calculated from IC50 by Cheng-Prusoff.
T1 construct: It contains some partially purified full length human recombinant glucocorticoid receptor; purchased Panvera/Invitrogen PV4302
T1 sequence (P04150 1-777): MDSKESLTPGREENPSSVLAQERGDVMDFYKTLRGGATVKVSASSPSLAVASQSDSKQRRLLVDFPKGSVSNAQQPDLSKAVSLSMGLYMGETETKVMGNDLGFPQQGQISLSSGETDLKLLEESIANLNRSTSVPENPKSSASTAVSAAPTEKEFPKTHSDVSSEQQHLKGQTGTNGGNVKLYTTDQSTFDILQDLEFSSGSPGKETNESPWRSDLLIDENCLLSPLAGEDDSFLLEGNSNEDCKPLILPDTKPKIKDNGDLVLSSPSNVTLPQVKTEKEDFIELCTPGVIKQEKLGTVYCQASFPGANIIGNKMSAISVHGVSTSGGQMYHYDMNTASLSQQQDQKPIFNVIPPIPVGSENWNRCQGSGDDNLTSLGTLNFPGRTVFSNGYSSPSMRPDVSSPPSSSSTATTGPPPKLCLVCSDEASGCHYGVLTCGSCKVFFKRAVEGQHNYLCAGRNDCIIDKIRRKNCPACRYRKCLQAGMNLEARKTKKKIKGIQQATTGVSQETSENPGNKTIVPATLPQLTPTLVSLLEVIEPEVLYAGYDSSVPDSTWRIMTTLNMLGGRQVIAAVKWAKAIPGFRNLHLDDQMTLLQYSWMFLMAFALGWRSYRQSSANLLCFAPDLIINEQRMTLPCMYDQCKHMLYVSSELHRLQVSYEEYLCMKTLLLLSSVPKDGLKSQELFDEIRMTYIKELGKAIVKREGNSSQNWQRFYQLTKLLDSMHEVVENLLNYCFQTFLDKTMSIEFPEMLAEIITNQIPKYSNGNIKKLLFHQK
Outline: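 Compounds in serial dilution (from intermediate 4.2% DMSO stock) displace Fluormone GS Far Red from full-length human recombinant GR with stabilizing peptide, pH 7.4, incubated 3 hours at 22° C dark. Polarized fluorescence (610–660 nm) gives IC50 via sigmoidal fit, converted to Ki by Cheng-Prusoff.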

Compound	Ki [nM]
C[C@H](c1ccc(-c2ccc(CC(=O)O)cc2)cc1Cl)[C@@](O)(c1ccc2c(c1)n(C)c(=O)n2C)C(F)(F)F (stereo in doubt) [Example 82, {3′-Chloro-4′-[2-(1,3-dimethyl-2-oxo-2,3-dihydro-1H-benzoimidazol-5-yl)-3,3,3-trifluoro-2-hydroxy-1-methyl-propyl]-biphenyl-4-yl}-acetic acid]	7
C[C@H](c1ccc(-c2cccc(CC(=O)O)c2)cc1Cl)[C@@](O)(c1ccc2c(c1)n(C)c(=O)n2C)C(F)(F)F (stereo in doubt) [Example 83, {3′-Chloro-4′-[2-(1,3-dimethyl-2-oxo-2,3-dihydro-1H-benzoimidazol-5-yl)-3,3,3-trifluoro-2-hydroxy-1-methyl-propyl]-biphenyl-3-yl}-acetic acid]	2.2
C[C@@H](c1ccc(Oc2ccc(C(=O)O)c(F)c2)cc1Cl)[C@](O)(c1ccc2c(c1)n(C)c(=O)n2C)C(F)(F)F (stereo in doubt) [Example 88, 4-{3-Chloro-4-[2-(1,3-dimethyl-2-oxo-2,3-dihydro-1H-benzoimidazol-5-yl)-3,3,3-trifluoro-2-hydroxy-1-methyl-propyl]-phenoxy}-2-fluoro-benzoic acid]	0.7
C[C@@H](c1ccc(Oc2ccc(CC(=O)O)cc2)cc1Cl)[C@](O)(c1ccc2c(c1)n(C)c(=O)n2C)C(F)(F)F (stereo in doubt) [Example 89, (4-{3-Chloro-4-[2-(1,3-dimethyl-2-oxo-2,3-dihydro-1H-benzoimidazol-5-yl)-3,3,3-trifluoro-2-hydroxy-1-methyl-propyl]-phenoxy}-phenyl)-acetic acid]	1.1
C[C@@H](c1ccc(Oc2ccc(C(=O)O)c(Cl)c2)cc1Cl)[C@](O)(c1ccc2c(c1)n(C)c(=O)n2C)C(F)(F)F (stereo in doubt) [Example 90, 2-Chloro-4-{3-chloro-4-[2-(1,3-dimethyl-2-oxo-2,3-dihydro-1H-benzoimidazol-5-yl)-3,3,3-trifluoro-2-hydroxy-1-methyl-propyl]-phenoxy}-benzoic acid]	0.4
C[C@H](c1ccc(Oc2ccc(C(=O)O)c(Cl)n2)cc1Cl)[C@@](O)(c1ccc2c(c1)n(C)c(=O)n2C)C(F)(F)F (stereo in doubt) [Example 92, 2-Chloro-6-{3-chloro-4-[2-(1,3-dimethyl-2-oxo-2,3-dihydro-1H-benzoimidazol-5-yl)-3,3,3-trifluoro-2-hydroxy-1-methyl-propyl]-phenoxy}-nicotinic acid]	0.6
C[C@H](c1ccc(Oc2ccc(OCC(=O)O)cc2)cc1Cl)[C@@](O)(c1ccc2c(c1)n(C)c(=O)n2C)C(F)(F)F (stereo in doubt) [Example 93, (4-{3-Chloro-4-[2-(1,3-dimethyl-2-oxo-2,3-dihydro-1H-benzoimidazol-5-yl)-3,3,3-trifluoro-2-hydroxy-1-methyl-propyl]-phenoxy}-phenoxy)-acetic acid]	0.3

Results, then the molecule that gave them:

Ki [nM]	Compound
0.3	C[C@H](c1ccc(Oc2cccc(OCC(=O)O)c2)cc1Cl)[C@@](O)(c1ccc2c(c1)n(C)c(=O)n2C)C(F)(F)F (stereo in doubt) [Example 94, (3-{3-Chloro-4-[2-(1,3-dimethyl-2-oxo-2,3-dihydro-1H-benzoimidazol-5-yl)-3,3,3-trifluoro-2-hydroxy-1-methyl-propyl]-phenoxy}-phenoxy)-acetic acid]
5.3	C[C@H](c1ccc(Oc2ccc(C(=O)O)nc2)cc1Cl)[C@@](O)(c1ccc2c(c1)n(C)c(=O)n2C)C(F)(F)F (stereo in doubt) [Example 95, 5-{3-Chloro-4-[2-(1,3-dimethyl-2-oxo-2,3-dihydro-1H-benzoimidazol-5-yl)-3,3,3-trifluoro-2-hydroxy-1-methyl-propyl]-phenoxy}-pyridine-2-carboxylic acid]
1.9	C[C@H](c1ccc(Oc2ccc(Cl)cc2C(=O)O)cc1Cl)[C@@](O)(c1ccc2c(c1)n(C)c(=O)n2C)C(F)(F)F (stereo in doubt) [Example 100, 5-Chloro-2-{3-chloro-4-[2-(1,3-dimethyl-2-oxo-2,3-dihydro-1H-benzoimidazol-5-yl)-3,3,3-trifluoro-2-hydroxy-1-methyl-propyl]-phenoxy}-benzoic acid]
1.1	C[C@@H](c1ccc(Oc2ccc(C(=O)O)cn2)cc1Cl)[C@](O)(c1ccc2c(c1)n(C)c(=O)n2C)C(F)(F)F (stereo in doubt) [Example 101, 6-{3-Chloro-4-[2-(1,3-dimethyl-2-oxo-2,3-dihydro-1H-benzoimidazol-5-yl)-3,3,3-trifluoro-2-hydroxy-1-methyl-propyl]-phenoxy}-nicotinic acid]
1.6	C[C@H](c1ccc(Oc2ncc(Cl)cc2C(=O)O)cc1Cl)[C@@](O)(c1ccc2c(c1)n(C)c(=O)n2C)C(F)(F)F (stereo in doubt) [Example 104, 5-Chloro-2-{3-chloro-4-[2-(1,3-dimethyl-2-oxo-2,3-dihydro-1H-benzoimidazol-5-yl)-3,3,3-trifluoro-2-hydroxy-1-methyl-propyl]-phenoxy}-nicotinic acid]
14.8	C[C@H](c1ccc(Oc2ncccc2C(=O)O)cc1Cl)[C@@](O)(c1ccc2c(c1)n(C)c(=O)n2C)C(F)(F)F (stereo in doubt) [Example 105, 2-{3-Chloro-4-[2-(1,3-dimethyl-2-oxo-2,3-dihydro-1H-benzoimidazol-5-yl)-3,3,3-trifluoro-2-hydroxy-1-methyl-propyl]-phenoxy}-nicotinic acid]
0.4	C[C@H](c1ccc(Oc2ncc(C(=O)O)cc2Cl)cc1Cl)[C@@](O)(c1ccc2c(c1)n(C)c(=O)n2C)C(F)(F)F (stereo in doubt) [Example 107, 5-Chloro-6-{3-chloro-4-[2-(1,3-dimethyl-2-oxo-2,3-dihydro-1H-benzoimidazol-5-yl)-3,3,3-trifluoro-2-hydroxy-1-methyl-propyl]-phenoxy}-nicotinic acid]
10.4	C[C@H](c1ccc(Oc2cc(Cl)ncc2C(=O)O)cc1Cl)[C@@](O)(c1ccc2c(c1)n(C)c(=O)n2C)C(F)(F)F (stereo in doubt) [Example 108, 6-Chloro-4-{3-chloro-4-[2-(1,3-dimethyl-2-oxo-2,3-dihydro-1H-benzoimidazol-5-yl)-3,3,3-trifluoro-2-hydroxy-1-methyl-propyl]-phenoxy}-nicotinic acid]
1.1	C[C@H](c1ccc(Oc2cc(Cl)c(C(=O)O)cn2)cc1Cl)[C@@](O)(c1ccc2c(c1)n(C)c(=O)n2C)C(F)(F)F (stereo in doubt) [Example 109, 4-Chloro-6-{3-chloro-4-[2-(1,3-dimethyl-2-oxo-2,3-dihydro-1H-benzoimidazol-5-yl)-3,3,3-trifluoro-2-hydroxy-1-methyl-propyl]-phenoxy}-nicotinic acid]
2.1	C[C@H](c1ccc(Oc2cc(C(=O)O)c(C(F)(F)F)cn2)cc1Cl)[C@@](O)(c1ccc2c(c1)n(C)c(=O)n2C)C(F)(F)F (stereo in doubt) [Example 110, 2-{3-Chloro-4-[2-(1,3-dimethyl-2-oxo-2,3-dihydro-1H-benzoimidazol-5-yl)-3,3,3-trifluoro-2-hydroxy-1-methyl-propyl]-phenoxy}-5-trifluoromethyl-isonicotinic acid]
